Read-outs that look alike come from different tables or passages of the source.
Key:
[1] = Phase 1 single escalating intravenous dose study, safety and pharmacokinetics; format: in vivo, human; conditions: for C5 / concentration at 5 min: concentration at 5 minutes; for concentration at 5 min: male, human, whole blood, read-out: C5
Protocol: In the present, first-time-in-man study, the safety and pharmacokinetics of zotarolimus were investigated following intravenous bolus administration of zotarolimus over a 100 to 900 μg dose range. The intravenous bolus dose administration would mimic the most rapid unexpected release of zotarolimus from drug-coated stents in vivo.
This was a Phase 1, single escalating dose, double-blind, randomized, placebo-controlled, single-center study. Sixty (60) adult healthy males were divided into 5 IV dose groups of 100, 300, 500, 700, and 900 μg.
Subjects were randomly assigned to receive a single intravenous dose of zotarolimus or a matching intravenous placebo under fasting conditions, as shown in the dosing scheme shown in Table 9.
Higher doses were administered after evaluating the safety data from the preceding lower dose groups. The treatment groups were separated by at least 7 days. For safety reasons, each treatment group was divided into two cohorts of six subjects and the doses of the two cohorts of a group were separated by at least 1 day.
Doses were administered as IV bolus over 3 minutes, with 8 subjects. Four subjects received zotarolimus and 4 subjects received placebo in each dose group. Blood was sampled for 168 hours and concentrations of zotarolimus measured using LC-MS/MS with a LOQ of 0.20 ng/mL
Seven (7)-mL blood samples were collected by venipuncture into evacuated collection tubes including edetic acid (EDTA) prior to dosing (0 hour) and at 0.083 (5 min), 0.25, 0.5, 1, 2, 4, 8, 12, 16, 24, 36, 48, 72, 96, 120, 144, and 168 hours after dosing on Study Day 1.
Blood concentrations of zotarolimus were determined using a validated liquid/liquid extraction HPLC tandem mass spectrometric method LC-MS/MS). […] AU calibration curves had coefficient of determination (r^2) values greater than or equal to 0.9923.
Safety was evaluated based on adverse event, physical examination, vital signs, ECG, injection site and laboratory tests assessments.
Pharmacokinetic parameter values of zotarolimus were estimated using noncompartmental methods.
To investigate the questions of dose proportionality and linear pharmacokinetics, an analysis of covariance (ANCOVA) was performed. Subjects were classified by dose level, and body weight was a covariate. The variables analyzed included β, Vdβ, dose-normalized C5, and logarithms of dose-normalized AUC0-last and dose-normalized AUC0-inf. The primary test of the hypothesis of invariance with dose was a test on dose-level effects with good power for a monotonic function of dose. In addition, the highest and lowest dose levels were compared within the framework of the ANCOVA.

human monocytes = assay: cytokine production by LPS-stimulated human monocytes (ELISA); format: cell-based
Protocol: (§1) Experiments were performed to determine the effects of zotarolimus, sirolimus and dexamethasone on the production of TNFα, IL-6 and MCP-1 by activated human monocytes In addition to monocytes and macrophages two other key cell types are involved in the etiology of restenosis, arterial smooth muscle and endothelial cells. These cells are activated and produce cytokines in response to TNFα. […] The activation of cytokine production by human coronary artery smooth muscle and endothelial cells following TNFα treatment was determined by measuring interleukine-8 (IL-8), MCP-1 and IL-6 production. As shown by the results of the experiments described below, the ability of these compounds to inhibit the production of cytokines supports their use in combination as anti-restenotic agents since these cytokines play a role in the development of restenosis. […] After 24 hours, the supernatants were carefully collected and TNFα, IL-6 and MCP-1 levels determined by ELISA. Primary cultures of human coronary artery endothelial and smooth muscle cells were obtained from Cambrex and maintained as described by the vendor. […] After 24 hours the supernatants were removed and replaced with media containing TNFα (5 ng/ml) in the presence and absence of various concentrations of zotarolimus, dexamethasone or sirolimus. The cells were incubated for 24 hours and the supernatants carefully removed and frozen until measurement. Cytokine levels were measured in the supernatants by sandwich ELISA.

[2] = tested on: human coronary artery endothelial cells (hCaEC); assay: cytokine production by TNFα-treated human coronary artery endothelial cells (ELISA); format: cell-based; conditions: TNFα (5 ng/ml), 24 hours
Protocol: as §1

[3] = tested on: human coronary artery endothelial cells (hCaEC); assay: 3H-thymidine uptake proliferation assay, hCaEC; format: cell-based; conditions: Homo sapiens, Endothelial cell, 3 h; read-out: hCaEC IC50 Mean ± SEM
[4] = 100 μg single IV bolus, healthy males, blood
[5] = 300 μg single IV bolus, healthy males, blood
[6] = 500 μg single IV bolus, healthy males, blood
[7] = 700 μg single IV bolus, healthy males, blood
[8] = 900 μg single IV bolus, healthy males, blood

CO[C@H]1C[C@@H]2CC[C@@H](C)[C@@](O)(O2)C(=O)C(=O)N2CCCC[C@H]2C(=O)O[C@H]([C@H](C)C[C@@H]2CC[C@H](n3cnnn3)[C@H](OC)C2)CC(=O)[C@H](C)/C=C(\C)[C@@H](O)[C@@H](OC)C(=O)[C@H](C)C[C@H](C)/C=C/C=C/C=C/1C [zotarolimus]
C5 [1, 4]: 13.48 ng/mL
C5 [1, 5]: 36.71 ng/mL
C5/Dose [1, 6]: 0.11 ± 0.0005 ng/mL/µg
β (elimination rate constant) [1, 6]: 0.017 ± 0.003 h⁻¹
CL [1, 7]: 3.18 L/h
C5 [1, 7]: 88.73 ng/mL
C5 [1, 8]: 110.78 ng/mL
concentration at 5 min [1, 4]: 13.5 ± 2.87 ng/mL
concentration at 5 min [1, 5]: 36.7 ± 9.82 ng/mL
concentration at 5 min [1, 7]: 88.7 ± 5 ng/mL
concentration at 5 min [1, 8]: 111 ± 15.9 ng/mL
tolerability ([1]; single IV doses of 100 to 900 μg, healthy males): well tolerated at all doses
most common treatment-emergent adverse events ([1]; single IV doses of 100 to 900 μg, reported by two or more subjects in any one treatment group): injection site reaction and pain
dose proportionality of pharmacokinetics ([1]; with respect to C5 and AUC0-inf, IV): dose-proportional over the 100-900 μg dose range
MCP-1 production by human monocytes in vitro (human monocytes; FIG. 10): dose-dependently inhibit MCP-1 production
production of TNFα and IL-6 by human monocytes (human monocytes; FIGS. 10 and 11): not demonstrated
Maximal Inhibitory Activity, IL-6 (human monocytes; Monocytes, 24 hours): − (− indicates maximal inhibitory activity less than 50% of control)
Maximal Inhibitory Activity, MCP-1 (human monocytes; Monocytes, 24 hours): +++ (+++ indicates maximal inhibitory activity of 75-100% of control)
Maximal Inhibitory Activity, TNF (human monocytes; Monocytes, 24 hours): − (− indicates maximal inhibitory activity less than 50% of control)
Maximal Inhibitory Activity, IL-6 [2]: − (− indicates maximal inhibitory activity less than 50% of control)
Maximal Inhibitory Activity, Il-8 [2]: − (− indicates maximal inhibitory activity less than 50% of control)
Maximal Inhibitory Activity, MCP-1 [2]: − (− indicates maximal inhibitory activity less than 50% of control)
IC50 [3]: 3.2 ± 0.5 nM

Source: patent US8394398B2 (Abbott Laboratories, priority 1997, dated 2013)
